Legend:
[1] = Photochromic properties of photochromic laminate (plastic lens) prepared by coating method; format: physicochemical; conditions: 40 µm photochromic layer on thiourethane lens, 0.25 mmol compound per 100 g monomers, after color development
Excerpt: (§1) First, the photochromic compound obtained in Example 1, a photoinitiator, and a polymerizable compound were mixed to obtain a curable composition.
(§2) Polyethylene glycol dimethacrylate (average molecular weight: 736): 42 parts by mass • Polyethylene glycol dimethacrylate (average molecular weight: 536): 12 parts by mass • Trimethylolpropane trimethacrylate: 38 parts by mass γ-methacryloyloxypropyl trimethoxysilane: 2 parts by mass Glycidyl methacrylate: 1 part by mass
(§3) Note that the photochromic compound was added to the curable composition so that the amount of the photochromic compound was 0.25 mmol based on 100 g of the total amount of the radical-polymerizable monomers.
(§4) Phenylbis(2,4,6-trimethylbenzoyl)phosphine oxide (photoinitiator: Omnirad 819): 0.3 parts by mass Ethylene bis(oxyethylene) bis[3-(5-tert-butyl-4-hydroxy-m-tolyl)propionate] (stabilizer, Irganox 245): 1 part by mass Bis(1,2,2,6,6-pentamethyl-4-piperidyl) sebacate: 3 parts by mass Leveling agent (L7001) manufactured by Dow Corning Toray Co.,Ltd.: 0.1 part by mass
(§5) First, a thiourethane-based plastic lens having a central thickness of 2 mm and a refractive index of 1.60 was prepared as the optical substrate. Note that this thiourethane-based plastic lens was pre-treated by alkaline etching with a 10% sodium hydroxide aqueous solution at 50°C for 5 minutes, followed by sufficient washing with distilled water.
(§6) A surface of the above-described plastic lens was coated with a moisture-curable primer (product name: TR-SC-P, manufactured by Tokuyama Corporation) at a rotation frequency of 70 rpm for 15 seconds, followed by 1000 rpm for 10 seconds, using a spin coater (1H-DX2, manufactured by MIKASA CO., LTD), Subsequently, about 2 g of the photochromic curable composition obtained above was spin-coated at a rotation frequency of 60 rpm for 40 seconds, followed by 600 rpm for 10 to 20 seconds, to form a photochromic coating layer with a film thickness of 40 µm.
(§7) The lens with the surface coated with the photochromic curable composition (photochromic coating layer) was irradiated with light using a metal halide lamp with an output power of 200 mW/cm^2 in a nitrogen gas atmosphere for 90 seconds to cure the coating film. Subsequently, the lens was further heated at 110°C for 1 hour to prepare a photochromic laminate having a photochromic layer.
In the same manner as in Example 26, photochromic laminates were prepared using the photochromic compounds obtained in Examples 2 to 25.
(§8) • [1] Maximum Absorption Wavelength (λmax): The maximum absorption wavelength after color development, measured using a spectrophotometer (instantaneous multichannel photodetector MCPD3000) manufactured by Otsuka Electronics Co., Ltd. was used as an indicator for the color tone during the color development. • [2] 23°C Color Optical Density (A23): A difference between an absorbancy measured after light irradiation at 23°C for 300 seconds {ε(300)} and an absorbancy without light irradiation ε(0) at the maximum absorption wavelength was used as an indicator for the color optical density. […] 23°C color fading half-life [τ1/2 (sec.)]: A time required for the absorbancy of the sample at the maximum absorption wavelength to decrease to 1/2 of {ε(300)-ε(0)} when the light irradiation was terminated after the light irradiation at 23°C for 300 seconds, was used as an indicator for the color fading speed. The shorter this time, the higher the color fading speed. • [4] Residual rate (A120/A0×100): The obtained photochromic plastic lens was subjected to accelerated deterioration using a xenon weather meter X25 manufactured by Suga Test Instruments Co., Ltd. for 120 hours. Subsequently, the color optical density was evaluated before and after the test, then a color optical density before the test (A0) and a color optical density after the test (A120) were measured, and a ratio (A120/A0) was defined as a residual rate. The residual rate was used as an indicator for a color developing durability. […]

[2] = Accelerated deterioration (xenon weather meter X25, 120 hours) of photochromic laminate prepared by coating method; format: physicochemical; conditions: 0.25 mmol per 100 g monomers, A120/A0×100 after 120 hours xenon weather meter
Excerpt: as §1, §2, §3, §4, §5, §6, §7
as §8, with “durability. The higher the residual rate, the higher the color developing durability.” for “durability.”

SMILES | Maximum absorption wavelength [1] | Residual rate [2] | other results
COc1ccc(C2(c3ccc(N(C)c4ccccc4)cc3)C=Cc3c4c(c5cc(-c6c(OC)cc(OC)cc6OC)c(OC)cc5c3O2)-c2ccc(C)cc2C4(CCCSC)CCCSC)cc1 (centres unmarked) [Example 12] | 478 nm | 65% | Maximum absorption wavelength ([1]; listed as Formula (66)): 614 nm
CCCOc1ccc(C2(c3ccc(N(CC(F)(F)F)c4ccccc4)cc3)C=Cc3c4c(c5ccccc5c3O2)-c2ccccc2C42CCCCCCC2)cc1 (centres unmarked) [Example 9] | 578 nm | 62% | –
COCCCC1(CCCOC)c2cc(-c3ccc(C(C)(C)C)cc3)ccc2-c2c1c1c(c3cc(OC)c(OC)cc23)OC(c2ccc(N(CCOC)c3ccccc3)cc2)(c2ccc3c(c2)OCCO3)C=C1 (centres unmarked) [Example 20] | 486 nm | 67% | Maximum absorption wavelength ([1]; listed as Formula (81)): 608 nm; Residual rate ([2]; listed as Formula (81)): 63%
COc1cc2c3c(c4c(c2cc1OC)-c1ccc(-c2ccc(C(F)(F)F)cc2)cc1C4(CCCC(F)(F)F)CCCC(F)(F)F)C=CC(c1ccc(Oc2ccccc2)cc1)(c1ccc(N(C)c2ccccc2)cc1)O3 (centres unmarked) [Example 13] | 489 nm | 65% | Maximum absorption wavelength ([1]; listed as Formula (69)): 605 nm; Residual rate ([2]; listed as Formula (69)): 60%
COCCCCC1(CCCCOC)c2cc(-c3ccccc3)ccc2-c2c1c1c(c3cc(OC)c(N4CCS(=O)(=O)CC4)cc23)OC(c2ccc(OCCOCCOC)cc2)(c2ccc(N(C)c3ccccc3)cc2)C=C1 (centres unmarked) [Example 58] | 498 nm | 60% | Maximum absorption wavelength ([1]; listed as Formula (114)): 617 nm
COc1ccc(C2(c3ccc(N(C)c4ccccc4)cc3)C=Cc3c4c(c5cc(-c6ccc(N7CCSCC7)cc6)c(OC)cc5c3O2)-c2ccc(OC)cc2C4(CCC(F)(F)F)CCC(F)(F)F)cc1 (centres unmarked) [Example 54] | 501 nm | 67% | Maximum absorption wavelength ([1]; listed as Formula (96)): 628 nm
CCCC1(CCC)c2ccccc2-c2c1c1c(c3cc(OC)c(N(c4ccccc4)c4ccccc4)cc23)OC(c2ccc(C)cc2)(c2ccc(N(C)c3ccccc3)cc2)C=C1 (centres unmarked) [Example 22] | 530 nm | 68% | –
CCCOc1ccc(C2(c3ccc(N(CC(F)(F)F)c4ccccc4)cc3)C=Cc3c4c(c5cc(-c6ccc(OC)cc6)c(C)cc5c3O2)-c2ccc(C)cc2C4(CC)CC)cc1 (centres unmarked) [Example 17] | 484 nm | 56% | Maximum absorption wavelength ([1]; listed as Formula (78)): 592 nm
COc1ccc(C2(c3ccc(N(C)c4ccccc4)cc3)C=Cc3c4c(c5cc6c(cc5c3O2)SC(C)(C)S6)-c2ccc(-c3ccc(F)c(F)c3F)cc2C42CCCCCCCCCCC2)cc1 (centres unmarked) [Example 52] | 488 nm | 58% | Maximum absorption wavelength ([1]; listed as Formula (93)): 604 nm; Residual rate ([2]; listed as Formula (93)): 56%
CCCCCCC1(CCCCCC)c2ccccc2-c2c1c1c(c3cc(OC)ccc23)OC(c2ccc(F)cc2)(c2ccc(N(CC)c3ccccc3)cc2)C=C1 (centres unmarked) [Example 4] | 489 nm | 57% | Maximum absorption wavelength ([1]; listed as Formula (48)): 601 nm
CCCc1ccc(C2(c3ccc(N(C)c4ccccc4)cc3)C=Cc3c4c(c5cc(OC)ccc5c3O2)-c2ccccc2C42CCCCCCC2)cc1 (centres unmarked) [Example 61] | 487 nm | 59% | Maximum absorption wavelength ([1]; listed as Formula (122)): 564 nm; Residual rate ([2]; listed as Formula (122)): 57%
COc1ccc(C2(c3ccc(N(c4ccccc4)C4CCCCC4)cc3)C=Cc3c4c(c5cc(OC)c(OC)cc5c3O2)-c2ccccc2C4(CCCCF)CCCCF)cc1 (centres unmarked) [Example 6] | 481 nm | 70% | Maximum absorption wavelength ([1]; listed as Formula (53)): 593 nm; Residual rate ([2]; listed as Formula (53)): 63%
CCCc1ccc(C2(c3ccc(N(C)c4ccccc4)cc3)C=Cc3c4c(c5cc(-c6ccc(C)cc6)c(C)cc5c3O2)-c2ccccc2C4(CCOC)CCOC)cc1 (centres unmarked) [Example 18] | 587 nm | 60% | –
CCCCC1(CCCC)c2cc([Si](C)(c3ccccc3)c3ccccc3)ccc2-c2c1c1c(c3cc(OC)c(C)cc23)OC(c2ccc(C)cc2)(c2ccc(N(C)c3ccccc3)cc2)C=C1 (centres unmarked) [Example 15] | 487 nm | 58% | Maximum absorption wavelength ([1]; listed as Formula (75)): 602 nm
